Laboratory results reported in article PMC10107299, “Neutralizing the Impact of the Virulence Factor LecA from Pseudomonas aeruginosa on Human Cells with New Glycomimetic Inhibitors” (Angewandte Chemie (International Ed. in English), 2023).

Assays:
plasma protein = assay: Plasma protein binding (rapid equilibrium device), murine plasma; type: in vitro ADME, mouse; details: 1 µM
Protocol: (§1) mixer (Eppendorf). Acetonitrile and caffeine were dispensed using a Mantis Formulatrix. Then samples were centrifuged for 20 min at 2.270 x g at 4 °C and the supernatants were transferred to 96-well Greiner V-bottom plates. Peak areas of each compound and of the internal standard were analyzed using the MultiQuant 3.0 software (AB Sciex). Peak areas of the respective compound were normalized to the internal standard peak area and to the respective peak areas at time point 0 min: (C/D)/(A/B) with A: peak area of the compound at time point 0 min, B: peak area of the internal standard at time point 0 min, C: peak area of the compound at the respective time point, D: peak area of the internal standard at the respective time point. […]
(§2) Assessment of plasma protein binding
(§3) Plasma protein binding was assessed using the rapid equilibrium device (RED) system from ThermoFisher. Compounds were dissolved in DMSO. […]
(§4) high plasma protein binding. Compounds were diluted in murine plasma (from CD-1 mice, pooled) or in human plasma (human donors, both genders, pooled) to a final concentration of 1 µM. Dialysis buffer and plasma samples were added to the respective chambers according the manufacturer’s protocol. The RED plate was sealed with a tape and incubated at 37 °C for 2 hours at 800 rpm on an Eppendorf MixMate vortex-mixer. Then samples were withdrawn from the respective chambers. To 25 µL of each dialysis sample, 25 µL of plasma and to 25 µL of plasma sample, 25 µL of dialysis buffer was added. Then 150 µL ice-cold extraction solvent (ACN/H2O (90:10) containing 12.5 ng/mL caffeine as internal standard) was added. Samples were incubated for 30 min on ice. Then samples were centrifuged at 4 °C at 2270 x g for 10 min.
(§5) Supernatants were transferred to Greiner V-bottom 96-well plates and sealed with a tape. The […]
(§6) percentage of bound compound was calculated as follows:
(§7) (1) % free = (concentration buffer chamber / concentration plasma chamber) *100 […]
(§8) Samples were analyzed using an Agilent 1290 Infinity II HPLC system coupled to an AB Sciex QTrap 6500plus mass spectrometer. LC conditions were as follows: column: Agilent […]
(§9) Zorbax Eclipse Plus C18, 50x2.1 mm, 1.8 µm; temperature: 30 °C; injection volume: 5 µL per […]
(§10) sample; flow rate: 700 µL/min. Samples were run under acidic and buffered conditions.
(§11) Solvents for acidic conditions: A1: water + 0.1% formic acid; solvent B1: 95% acetonitrile/5% […]
(§12) H2O + 0.1% formic acid; solvents for buffered conditions: A2: 95% water + 5% acetonitrile + […]
(§13) 5 mM ammonium acetate + 40 µL/L acetic acid; B2: 95% acetonitrile + 5% water + 5 mM […]
(§14) ammonium acetate + 40 µL/L acetic acid. The same gradient was applied for acidic and […]
(§15) buffered conditions: 99% A at 0 min, 99% A until 1 min, 99% - 0% A from 1 min to 4.0 min, […]
(§16) 0% A until 5.0 min. Mass transitions for controls and compounds are depicted in the following […]

[1] = In vivo pharmacokinetic study in mice; set-up: species or system CD-1 mice; details: 1 mg kg^−1 i.v.; for Cmax: male, CD-1, mouse, urine, iv
Protocol: Encouraged by these promising in vitro results, an in vivo pharmacokinetic study was conducted for H2 and L2 in mice (1 mg kg^−1, i. v.) and in rats for L2 (10 mg kg^−1, i. v.). Compound concentrations were monitored in plasma and urine (Figure 6). H2 and L2 were cleared from mouse plasma within 1 h. Both compounds rapidly reached high concentrations in urine, several orders of magnitude above their respective in vitro LecA binding affinity. In fact, concentrations above the K ds were detected over the entire observation period of 5 h. […] In rats, higher amounts of L2 were detected both in plasma and urine, not solely corresponding to the 10‐fold increased dose. […] Importantly, high levels of L2 were present in rat urine even 24 h after administration.
Pharmacokinetic studies in mice
For pharmacokinetic experiments, outbred male CD-1 mice (Charles River, Germany), 4-weeks-old, were used. The animal studies were conducted in accordance with the recommendations of the European Community (Directive 86/609/EEC, 24 November 1986). All animal procedures were performed in strict accordance with the German regulations of the Society for Laboratory Animal Science (GV-SOLAS) and the European Health Law of the Federation of Laboratory Animal Science Associations (FELASA). Animals were excluded from further analysis if sacrifice was necessary according to the humane endpoints established by the ethical board. All experiments were approved by the ethical board of the Niedersächsisches Landesamt für Verbraucherschutz und Lebensmittelsicherheit, Oldenburg, Germany (33.19-42502-04-20/3522). L2 and H2 were dissolved in water and administered in individual PK studies (N = 2 per study) at 1 mg/kg intravenously. Up to 25 µl blood was collected from the lateral tail vein and time points t = 0.25, 0.5, 1 and 3 hours. At t = 5 hours animals were euthanized to collect blood. At time points t = 0.25, 0.5, 1, 3 and 5 hours spontaneous urine was collected as well. Whole blood was collected into Eppendorf tubes coated with 0.5 M EDTA and immediately spun down at […]
15870 x g for 10 min at 4 °C. […]
Rats were provided with a catheter in the jugular vein 2 - 3 days prior to drug administration and blood sampling. According to national animal welfare guidelines, rats were treated once with Carprofen (5 mg/kg) directly after catheterization. Catheter was rinsed daily with K3EDTA. […]
First, a calibration curve was prepared by spiking different concentrations of L2 and H2 into mouse plasma, rat plasma or mouse urine (matrix for mouse and rat PK samples) from CD-1 mice. […] Samples from the mouse PK study with H2 in mice and from the rat PK study with L2 were analyzed via HPLC-MS/MS as described in the HPLC-MS analysis section above. PK samples from the mouse PK study with L2 were analyzed using an Agilent 1290 […]

[2] = Plasma protein binding (rapid equilibrium device), human plasma; type: in vitro ADME; details: both sexes, human, plasma, read-out: PPB Human (converted)
Protocol: as §1, §2, §3, §4, §5, §6, §7, §8, §9, §10, §11, §12, §13, §14, §15, §16

In the case of O=C(CCc1ccc(O[C@@H]2O[C@H](CO)[C@H](O)[C@H](O)[C@H]2O)cc1)Nc1ccc(CCc2ccc(NC(=O)CCc3ccc(O[C@@H]4O[C@H](CO)[C@H](O)[C@H](O)[C@H]4O)cc3)cc2S(=O)(=O)O)c(S(=O)(=O)O)c1 [Compound L2], the “PPB Mouse” value (plasma protein) is reported as 14.5 ± 6.8%, the “Time to clearance from mouse plasma” value [1] is reported as no more than 1 h and the Cmax [1] is reported as 13.4 µM. The fraction unbound at 2 h, 1 µM [2] was 0.62.

For O=C(CCc1ccc(O[C@@H]2O[C@H](CO)[C@H](O)[C@H](O)[C@H]2O)cc1)Nc1ccc(OCCOc2ccc(NC(=O)CCc3ccc(O[C@@H]4O[C@H](CO)[C@H](O)[C@H](O)[C@H]4O)cc3)cc2)cc1 [Compound D2], the fraction unbound at 2 h, 1 µM [2] was 0.005.

In the case of O=C(CCc1ccc(O[C@@H]2O[C@H](CO)[C@H](O)[C@H](O)[C@H]2O)cc1)Nc1ccc(OCCOc2ccc(NC(=O)CCc3ccc(O[C@@H]4O[C@H](CO)[C@H](O)[C@H](O)[C@H]4O)cc3)cn2)nc1 [Compound H2], the “PPB Mouse” value (plasma protein) is reported as 97.6 ± 2.1%, the “Time to clearance from mouse plasma” value [1] is reported as no more than 1 h and the Cmax [1] is reported as 63 µM. For the same compound, the fraction unbound at 2 h, 1 µM [2] was 0.005.

Compound O=C(/C=C/c1ccc(O[C@@H]2O[C@H](CO)[C@H](O)[C@H](O)[C@H]2O)cc1)Nc1ccc(OCCOc2ccc(NC(=O)/C=C/c3ccc(O[C@@H]4O[C@H](CO)[C@H](O)[C@H](O)[C@H]4O)cc3)cc2)cc1 [Compound D1] has a fraction unbound at 2 h, 1 µM [2] of 0.004.
